# In USRE37770E1, “Treatment of skin conditions by use of PPARα activators” (The Regents of the University of California, priority 1997, dated 2002):
# Experiments:
# [1] = system: Normal human keratinocytes; assay: Cornified envelope formation (35S incorporation) in keratinocytes; type: cell-based; conditions: 10 μM, 48 hours
# keratinocytes = assay: Rate of DNA synthesis (3H-thymidine incorporation) in keratinocytes; type: cell-based, Human; conditions: 10 μM, 24 hours, low calcium (0.03 mM); 16-hour 3H-thymidine period
# Description: The rate of DNA synthesis was determined by measuring the incorporation of ^3H-thymidine into cellular DNA after 16 hours of incubation with 2 μCi^3H-thymidine per mL of media (110 Ci/mmol methyl-1′,2′-^3H-thymidine (Amersham Laboratories, Arlington Heights, Ill. USA). The cells were then solubilized in 1N NaOH, and the radioactivity in the washed TCA precipitate was quantitated by scintillation spectroscopy.
# Using the procedures set forth in the Materials and Methods section above, 25-hydroxycholesterol (10 μM) and 22(R)-hydroxycholesterol (10 μM, were compared with cholesterol (10 μM) and the vehicle alone control), with treatment for 24 hours under low calcium (0.03 mM) condition. The results are shown in the bar graph of FIG. 19.
# transglutaminase protein = assay: Transglutaminase protein level in keratinocytes by Western blotting; type: cell-based, Human; conditions: for TG'ase protein level relative to the control: low calcium (0.03 mM), 24 hours
# Description: Protein concentration was assessed by protein electrophoresis and Western blotting. Cells were lysed is 2% SDS and the lysate sonicated. Protein determinations were made by use of a Bicinchoninic add protein assay (Pierce Chemical Company, Rockford, Ill. USA). Following protein determination, equal amounts at protein (50 μg) were separated by electrophoresis an 7.5% polyacrylamide gels and electroblotted onto polyvinylidene […] membranes (0.2-μ, obtained from Bio-Rad Laboratories Hercules, Calif., USA). Involucrin protein was detected by incubation over-night at 4° C. C. with a polyclonal rabbit anti-human involucrin antibody (1:1000 dilution). The involucrin-specific bands on the autoradiograms were quantitated by densitometry by densitometry. Transglutaminase protein expression was measured in a similar […], using stacking, sample and running buffers containing 4 M urea, and the gels following electrophoresis were washed in 4 M urea, 25 mM TRIS-HCl, pH 7.4, 7.5 mM NaCl, 0.1 mM dithiothreitol (DTT), and 2 mM ethylenediamine tetraacetic acid for 90 minutes prior to electoblotting, allowing the transglutaminase to be detected by antibody. Specific bands on the autoradiograms were quantified by densitometry. Levels of involucrin and transglutaminase protein were measured in keratinocytes incubated in low calcium (0.03 mM) and treated with the test compounds for 24 hours. The are shown in the bar graph of FIG. 17a, where the test compounds are compared with the vehicle alone (control) and cholesterol, using the same bar indications as in FIGS 14 through 16. […] Cholesterol had no effect.
# transglutaminase mRNA [2] = assay: Transglutaminase mRNA in keratinocytes by Northern Blot; type: cell-based, Human; conditions: for transglutaminase (TG'ase) mRNA level compared to the vehicle alone: low calcium (0.03 mM), 24 hours, 10 μM
# Description: (§1) Human keratinocyte cells were incubated in culture containing calcium at a concentration of 0.03 mM Ca^++ (a level that is too low to induce differentiation). Also included in the culture medium were clofibrate at 400 μM or ETYA at 10 μM and 20 μM, while separate cell cultures were maintained as controls with neither clofibrate nor ETYA. The production of mRNA for both involucrin and transglutaminase was measured at intervals over a 48-hour time period (0, 6, 12, 24, and 48 hours) by Northern Blot analysis. In each case, the lighter bars represent the control cells and the darker bars the cells incubated in the clofibrate-containing medium. The degree of mRNA generated is expressed as a percent of the control at zero hours.
# (§2) Human epidermis was isolated from newborn foreskins and keratinocytes were plated in serum-free keratinocyte growth medium (“KGM”; Clonetics, San Diego, Calif. USA), using conventional techniques. Cells were treated with either the test compounds in vehicle or vehicle alone (<0.1% ethanol) for 24 or 48 hours. The test compounds were obtained from Sigma Chemical Co. (St. Louis. Mo. USA) and were stored as 15 mM stock solutions at −20° C. Mevalonate was solubilized in sterile water.
# (§3) Total RNA was isolated by using TRIZOL (Sigma Chemical Co.), following the manufacturer's protocol. Ethanol-precipitate RNA pellets were suspended in sterile, diethylpyrocarbonate (DEPC)-treated water, and RNA was quantified by absorbance at 260 nm using the 260/280 nm ratio as an index of purity. RNA (15 μg per sample) was size fractionated through a 1% agarose gel containing 2.2 M formaldehyde. RNA integrity was visualized following acridine orange staining of the gel following electrophoresis. The RNA was transfered to a nylon membrane that was subsequently baked at 80° C. for 2 hours. Blots were hybridized with the appropriate ^32p-labeled probe overnight at 65° C. Washes were then performed in a solution containing 0.1% SSC and 0.1% sodium dedecyl sulfate (SDS) for 20 minutes at room temperature, followed by a 20-minute wash at 65° C. Autoradiography was performed at −70° C. Blots were probed with β-actin to confirm equal loading. Appropriate bands were quantified by densitometry.
# (§4) Northern blot analyses were performed on keratinocytes maintained in low calcium (0.03 mM) and incubated for 24 hours in the presence of vehicle alone (<0.1% ethanol) or vehicle containing 25-hydroxycholesterol (10 μM), 22(R)-hydroxycholesterol (10 μM) cholesterol (10 μM), or mevalonate (500 μM) (individually). The mRNA levels of involucrin (“INV”) and transglutaminase (“TG'ase”) are shown in the bar graph of FIG. 14a, the INV indicated by clear bars and the TG'ase by shaded bars, both with error limits shown.
# involucrin mRNA [3] = assay: Involucrin mRNA in keratinocytes by Northern Blot; type: cell-based, Human; conditions: for involucrin (INV) mRNA level compared to the vehicle alone: low calcium (0.03 mM), 24 hours, 10 μM
# Description: as §1, §2, §3, §4
# involucrin protein = assay: Involucrin protein level in keratinocytes by Western Blot; type: cell-based, Human; conditions: for increase in INV protein: high calcium (1.2 mM), 15 μM; for INV protein level relative to the control: low calcium (0.03 mM), 24 hours
# Description: Measurements of the level of the involucrin protein itself were performed in the culture medium by Western Blot. Various incubations were performed, in media containing clofibrate at concentrations ranging from 0 (vehicle only) to 400 μM and calcium ion at both 0.03 mM and 1.2 mM. The results are shown in FIG. 9a for tests with calcium ion at 0.03 mM, and in FIG. 9b for tests with calcium ion at 1.2 mM. In these figures, the protein contents are expressed as percents of the respective measurements taken from media incubated for the same period of time but in the absence of clofibrate.
# The procedures of Example 8 were followed, and measurements were taken on the involucrin protein levels from cells incubated at various concentrations of farnesol and juvenile hormone III ranging from 0 (vehicle only) to 15 μM, in media containing 0.03 mM and 1.2 mM calcium ion, for 24 hours. The results are shown in FIG. 10 for farnesol and FIG. 11 for juvenile hormone III, in 0.03 mM Ca^++.
# Protein concentration was assessed by protein electrophoresis and Western blotting. Cells were lysed is 2% SDS and the lysate sonicated. Protein determinations were made by use of a Bicinchoninic add protein assay (Pierce Chemical Company, Rockford, Ill. USA). Following protein determination, equal amounts at protein (50 μg) were separated by electrophoresis an 7.5% polyacrylamide gels and electroblotted onto polyvinylidene […] membranes (0.2-μ, obtained from Bio-Rad Laboratories Hercules, Calif., USA). Involucrin protein was detected by incubation over-night at 4° C. C. with a polyclonal rabbit anti-human involucrin antibody (1:1000 dilution). The involucrin-specific bands on the autoradiograms were quantitated by densitometry by densitometry. Transglutaminase protein expression was measured in a similar mmaner, using stacking, sample and running buffers containing 4 M urea, and the gels following electrophoresis were washed in 4 M urea, 25 mM TRIS-HCl, pH 7.4, 7.5 mM NaCl, 0.1 mM dithiothreitol (DTT), and 2 mM ethylenediamine tetraacetic acid for 90 minutes prior to electoblotting, allowing the transglutaminase to be detected by antibody. Specific bands on the autoradiograms were quantified by densitometry.
# transglutaminase mRNA [4] = assay: Transglutaminase mRNA in keratinocytes by Northern Blot; type: cell-based, Human; conditions: calcium 1.2 mM, 10 μM, 24 hours
# involucrin mRNA [5] = assay: Involucrin mRNA in keratinocytes by Northern Blot; type: cell-based, Human; conditions: calcium 1.2 mM, 10 μM, 24 hours
# [6] = doses 0-15.0 μM, low calcium, FIG. 15
SMILES,increase in cornified envelope (CE) formation ([1]; high calcium (1.2 mM)),increase in cornified envelope (CE) formation ([1]; low calcium (0.03 mM)),rate of DNA synthesis (keratinocytes),"increase in TG'ase protein level (transglutaminase protein; high calcium (1.2 mM), 5 μM)",TG'ase protein level relative to the control (transglutaminase protein),"EC50 (transglutaminase mRNA [2]; Homo sapiens, Keratinocyte, doses 0-15.0 μM, low calcium, FIG. 15, read-out: dosage of half-maximal effects on TG'ase mRNA)",dosage of maximal effects on TG'ase mRNA (transglutaminase mRNA [2]; [6]),transglutaminase (TG'ase) mRNA level compared to the vehicle alone (transglutaminase mRNA [2]),"EC50 (involucrin mRNA [3]; Homo sapiens, Keratinocyte, doses 0-15.0 μM, low calcium, FIG. 15, read-out: dosage of half-maximal effects on INV mRNA)",dosage of maximal effects on INV mRNA (involucrin mRNA [3]; [6]),involucrin (INV) mRNA level compared to the vehicle alone (involucrin mRNA [3]),increase in INV protein (involucrin protein),INV protein level relative to the control (involucrin protein),"TG'ase mRNA level, induction (transglutaminase mRNA [4])","INV mRNA level, induction (involucrin mRNA [5])"
CC(C)CC[C@@H](O)[C@@H](C)[C@H]1CC[C@H]2[C@@H]3CC=C4C[C@@H](O)CC[C@]4(C)[C@H]3CC[C@]12C [22(R)-hydroxycholesterol],2.1 fold,1.3 fold,42 % of control,2.1 fold,approximately 2.8 fold,~5 µM,10 to 15 µM,approximate twofold increase,~5 µM,10 to 15 µM,approximate twofold increase,2.8 fold,approximately 3.2 fold,,
CC(C)CCC[C@@H](C)[C@H]1CC[C@H]2[C@@H]3CC=C4C[C@@H](O)CC[C@]4(C)[C@H]3CC[C@]12C [cholesterol],no increase,no increase,117 % of control,,had no effect,,,neither cholesterol (“chol”) nor mevalonate (“mev”) had any effect,,,neither cholesterol (“chol”) nor mevalonate (“mev”) had any effect,essentially no increase,had no effect,no effect,no effect
